In ChEMBL document CHEMBL1201862, “PubChem BioAssay data set” (2004):
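Tested at 5 concentrations; 48 h exposure; 96-well plates; endpoints linearly interpolated, else capped at highest concentration. The concentration for 50% growth inhibition is given as GI50.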 Active and inactive are the calls of the source. Cut-off read from the data, not from the text of the source: active = GI50 up to about 1.1 µM and inactive = higher.

Experiments:
Experiment in all cases: DTP human tumour cell line panel, 48 h
HCC 2998 = tested on: HCC 2998
OVCAR-5 = tested on: OVCAR-5
SF-539 = tested on: SF-539
SW-620 = tested on: SW-620
SNB-19 = tested on: SNB-19
NCI-H460 = tested on: NCI-H460
RXF 393 = tested on: RXF 393
HL-60 = tested on: HL-60
U-251 = tested on: U-251
RPMI-8226 = tested on: RPMI-8226
NCI-H522 = tested on: NCI-H522
NCI-H226 = tested on: NCI-H226
Malme-3M = tested on: Malme-3M
HOP-92 = tested on: HOP-92
CAKI-1 = tested on: CAKI-1
SR = tested on: SR

| SMILES | GI50 (HCC 2998) | GI50 (OVCAR-5) | GI50 (SF-539) | GI50 (SW-620) | GI50 (SNB-19) | GI50 (NCI-H460) | GI50 (RXF 393) | GI50 (HL-60) | GI50 (U-251) | GI50 (RPMI-8226) | GI50 (NCI-H522) | GI50 (NCI-H226) | GI50 (Malme-3M) | GI50 (HOP-92) | GI50 (CAKI-1) | GI50 (SR) |
| --- | --- | --- | --- | --- | --- | --- | --- | --- | --- | --- | --- | --- | --- | --- | --- | --- |
| N#CC(C(=O)CCC(=O)C(C#N)c1ccccc1)c1ccccc1 (stereo not given) | > 100 µM (inactive) | > 100 µM (inactive) | > 100 µM (inactive) | > 100 µM (inactive) | > 100 µM (inactive) | > 100 µM (inactive) | > 100 µM (inactive) | > 100 µM (inactive) | > 100 µM (inactive) | > 100 µM (inactive) | > 100 µM (inactive) | > 100 µM (inactive) | > 100 µM (inactive) | > 100 µM (inactive) | > 100 µM (inactive) | > 100 µM (inactive) |
| COC1(OC)CCCCC2c3cccc(OC(C)=O)c3C21OC(C)=O (stereo not given) | > 100 µM (inactive) | > 100 µM (inactive) | > 100 µM (inactive) | > 100 µM (inactive) | > 100 µM (inactive) | > 10 µM (inactive) |  | 65.8 µM (inactive) |  | 54 µM (inactive) | > 100 µM (inactive) | > 100 µM (inactive) | > 100 µM (inactive) |  |  | 59.2 µM (inactive) |
| Cc1cccc(C)c1NC(=O)CCC(=O)NNc1nnc(C)n1N | > 100 µM (inactive) | > 100 µM (inactive) | > 100 µM (inactive) | > 100 µM (inactive) | > 100 µM (inactive) | > 100 µM (inactive) | > 100 µM (inactive) | > 100 µM (inactive) | > 100 µM (inactive) | > 100 µM (inactive) | > 100 µM (inactive) | > 100 µM (inactive) | > 100 µM (inactive) | > 100 µM (inactive) | > 100 µM (inactive) | > 100 µM (inactive) |
| NC(=S)N/N=C1\CCCC\C1=C/c1ccccc1 | > 100 µM (inactive) | 12.8 µM (inactive) | 93.8 µM (inactive) | 72.6 µM (inactive) | > 100 µM (inactive) | > 100 µM (inactive) | 23.8 µM (inactive) | 1.88 µM (inactive) | 40.5 µM (inactive) | 15 µM (inactive) | 18.7 µM (inactive) |  | 60.8 µM (inactive) | 47.2 µM (inactive) |  |  |
| COC(=O)C(Cc1nc2ccccc2nc1O)C(NO)C(=O)Nc1c(Cl)cc([N+](=O)[O-])cc1Cl (stereo not given) | 59.6 µM (inactive) |  | 22.8 µM (inactive) |  | 40.1 µM (inactive) | 20.7 µM (inactive) | 16.5 µM (inactive) |  | 31.3 µM (inactive) | 34.7 µM (inactive) | 15.5 µM (inactive) |  | 47.5 µM (inactive) | 5.56 µM (inactive) | 27.6 µM (inactive) | 31.3 µM (inactive) |
| O=S(=O)(O)SC/C=C\CSS(=O)(=O)O | > 100 µM (inactive) | > 100 µM (inactive) | 66.2 µM (inactive) | > 100 µM (inactive) | 42.4 µM (inactive) | 42.9 µM (inactive) | > 100 µM (inactive) | > 100 µM (inactive) | 31.5 µM (inactive) | > 100 µM (inactive) | > 100 µM (inactive) | 49.7 µM (inactive) | > 100 µM (inactive) | > 100 µM (inactive) | > 100 µM (inactive) | > 100 µM (inactive) |
| CC12CCC[C@@](C)(C(=O)OC3OC(CO)C(O)C(O)C3O)[C@H]1CCC13CC4CC(OC4(CO)[C@H]1O)[C@@H]23 (stereo not given in full) | > 100 µM (inactive) | > 100 µM (inactive) | > 100 µM (inactive) | 14.5 µM (inactive) | > 100 µM (inactive) | > 100 µM (inactive) | > 100 µM (inactive) |  | > 100 µM (inactive) | > 100 µM (inactive) | > 100 µM (inactive) | > 100 µM (inactive) | > 100 µM (inactive) | > 100 µM (inactive) | > 100 µM (inactive) | > 100 µM (inactive) |
| CC1CC[C@]2(C(=O)O)CCC3(COC(=O)/C=C\c4ccc(O)cc4)C(=CCC4[C@@]5(C)CC[C@H](O)C(C)(C)C5CC[C@]43C)[C@@H]2[C@H]1C (stereo not given in full) | 17.2 µM (inactive) | 19.5 µM (inactive) | 15.8 µM (inactive) | 27.9 µM (inactive) | 12.3 µM (inactive) | 15.7 µM (inactive) | 17.5 µM (inactive) | 26.2 µM (inactive) | 9.79 µM (inactive) | 22.3 µM (inactive) | 17.5 µM (inactive) | 18.5 µM (inactive) | 34.8 µM (inactive) |  | 11.4 µM (inactive) | 20.6 µM (inactive) |
| CCN(CC)C(=S)S [DITIOCARB SODIUM] | 33.6 µM (inactive) | > 100 µM (inactive) | > 60.4 µM (inactive) | 0.117 µM (active) | > 100 µM (inactive) | 0.373 µM (active) | > 57.4 µM (inactive) | 0.294 µM (active) | 0.299 µM (active) | 0.528 µM (active) | 0.103 µM (active) | > 100 µM (inactive) | 19.1 µM (inactive) | > 76.6 µM (inactive) |  | 0.0354 µM (active) |
